Laboratory results reported in patent US20230414514A1, “FORMULATION TO DETER ABUSE OF DRUGS BY SMOKING” (Purdue Research Foundation, priority 2022, published 2023).

Assay: Thermogravimetric analysis (TGA), thermal stability / decomposition
Format: physicochemical
Details: as stated in the description, conditions not given
Experimental: Samples of 8.0-18.2 mg were placed in platinum TGA sample pans (CS Ceramic) and heated from room temperature to 700° C. at 20° C./min in a furnace under either inert (nitrogen) or oxidizing (air) atmosphere. The experiments were performed in triplicates (n=3) or quintuplicates (n=5). The data were exported and the TGA curves were analysed using TA Universal Analysis Software (Universal Analysis 2000 Version 4.5A, TA Instruments-Waters LLC, New Castle, DE) to determine onset degradation temperatures (Ton,degradation) and weight percent losses of the materials used in this study over the temperature intervals of interest. The values were averaged and reported as mean±standard deviation.
FIG. 3A and FIG. 3B show the TGA profiles for PLA and PCL respectively. […] The mean Ton,degradation of PLA was 278.8±3.8° C., with the average weight percent loss of 98.6±0.3% (n=3) during the decomposition step. The mean Ton,degradation of PCL was 353.1±1.7° C., and the weight percent loss averaged 97.9±1.1% (n=3).
PLA-PCL MS with a 1:9 polymer ratio lost 12.3±0.8% weight (n=3) during the first decomposition step, and 84.7±0.6% weight (n=3) during the second step. The mean weight percent loss for the PLA-PCL MS with a 5:5 ratio of PLA to PCL was 56.5±0.9% (n=3) and 38.4±1.1% (n=3) during the first and second thermal degradation steps. […]

## COC1=CC=C2[C@H]3Cc4ccc(OC)c5c4[C@@]2(CCN3C)[C@H]1O5 [THB, Thebaine]
  thermal decomposition temperature: about 183 °C
